In patent US8637528B2, “Use of PDE7 inhibitors for the treatment of movement disorders” (Omeros Corporation, priority 2007, dated 2014):

Columns and labels:
MPTP-treated mice = assay: inked paw stride length in the MPTP mouse model of Parkinson's disease, confirmatory study (Example 6); format: in vivo; parameters: key to Letter Designation (statistical group of stride length): A: Groups that share a letter are not statistically different; groups that do not share a letter are significantly different from each other.; B: Groups that share a letter are not statistically different; groups that do not share a letter are significantly different from each other.; C: Groups that share a letter are not statistically different; groups that do not share a letter are significantly different from each other; settings: for Letter Designation (statistical group of stride length): No treatment = A, MPTP = B; for Stride length (cm) MEAN ± SEM: MPTP-lesioned mice, 20 minutes after dosing
Procedure: Adult male C57BL/6J; retired breeders, aged between 7-9 months (Jackson Laboratory, Bar Harbor, Me., USA), singly housed.
MPTP Mice received 2 subcutaneous injections of methylphenyltetrahydropyridine (“MPTP”) at a dose of 15 mg/kg (free base) with a 10-12 hour interval between injections. Control mice (sham lesion groups) were administered saline instead of MPTP.
Seven days after MPTP/saline administration, OM69 was administered to mice. For each dose, a 100× stock of OM69 was prepared in 100% DMSO and subsequently diluted 100× into phosphate buffered saline (PBS). Then 100 μL of this 1× solution was administered intraperitoneally (IP).
Prior to injection with MPTP or saline, animals were pre-trained to walk across a clean sheet of paper into their home cage without stopping. For assessment of stride length, animals had their forepaws placed in black ink and the length of forepaw steps during normal walking (in a straight line only) was measured. The animals were immediately put back into their home cage upon completion of the task. Stride length was determined by measuring the distance between each step on the same side of the body, measuring from the middle toe of the first step to the heel of the second step. An average of at least four clear steps was calculated.
Data was analyzed using Prism 4.0 software. Groups were analyzed by one way ANOVA and Student-Newman-Keuls post hoc test when appropriate. Significance was considered reached at p<0.05. Treatment groups in the stride length graph that are statistically different are indicated by the letters in Table 6.
Retired breeder male mice (28 animals total) were treated with 2×15 mg/kg MPTP (12 saline; […]) to induce a Parkinsonian state (neurochemical loss of dopamine with corresponding behavioral deficits). On day 1 baseline stride length was measured and then all mice were treated with MPTP or saline. On day 8 stride length was measured again, and then the MPTP-treated animals were divided randomly into two groups of fourteen. As described in Example 5, dosing with the successive treatments indicated in FIG. 12 occurred on consecutive days, and in each case stride length was measured 20 minutes after dosing.
On Day 9, Group 1 animals were treated with OM69 (0.01 mg/kg) and Group 2 were treated with L-dopa (1 mg/kg). On Day 10, Group 1 animals were treated with OM69 (0.03 mg/kg) and Group 2 were treated with L-dopa (5 mg/kg). On Day 11, Group 1 animals were treated with OM69 (0.05 mg/kg) and Group 2 were treated with OM69 (0.1 mg/kg). On Day 12, Group 1 was treated with OM69 (0.07 mg/kg).
Next, for combination studies, the two groups were combined. On Day 14, all the animals were treated with both L-dopa (1 mg/kg) and OM69 (0.01 mg/kg). On Day 15, all the animals were treated with L-dopa (1 mg/kg) in combination with a higher dose of OM69 (0.03 mg/kg).

PDE7A = PDE7A (Homo sapiens (Human), UniProt Q13946); assay: PDE7 phosphodiesterase scintillation proximity assay (SPA), PDE7A; format: biochemical; settings: for Fold Selectivity, PDE7A: IC50 against PDE7A divided by IC50 against PDE7A; for selectivity for inhibition of the PDE7A enzyme as compared to the other PDEs: versus PDE1B, 2A, 3A, 4A, 5A, 8A, 9A, 10A, 11A
PDE9A = PDE9A (Homo sapiens (Human), UniProt O76083); assay: PDE selectivity SPA assay, PDE9A; format: biochemical; settings: IC50 against PDE9A divided by IC50 against PDE7A
PDE11A = PDE11A (Homo sapiens (Human), UniProt Q9HCR9); assay: PDE selectivity SPA assay, PDE11A; format: biochemical; settings: IC50 against PDE11A divided by IC50 against PDE7A
PDE11A, sequence (Q9HCR9 whole entry): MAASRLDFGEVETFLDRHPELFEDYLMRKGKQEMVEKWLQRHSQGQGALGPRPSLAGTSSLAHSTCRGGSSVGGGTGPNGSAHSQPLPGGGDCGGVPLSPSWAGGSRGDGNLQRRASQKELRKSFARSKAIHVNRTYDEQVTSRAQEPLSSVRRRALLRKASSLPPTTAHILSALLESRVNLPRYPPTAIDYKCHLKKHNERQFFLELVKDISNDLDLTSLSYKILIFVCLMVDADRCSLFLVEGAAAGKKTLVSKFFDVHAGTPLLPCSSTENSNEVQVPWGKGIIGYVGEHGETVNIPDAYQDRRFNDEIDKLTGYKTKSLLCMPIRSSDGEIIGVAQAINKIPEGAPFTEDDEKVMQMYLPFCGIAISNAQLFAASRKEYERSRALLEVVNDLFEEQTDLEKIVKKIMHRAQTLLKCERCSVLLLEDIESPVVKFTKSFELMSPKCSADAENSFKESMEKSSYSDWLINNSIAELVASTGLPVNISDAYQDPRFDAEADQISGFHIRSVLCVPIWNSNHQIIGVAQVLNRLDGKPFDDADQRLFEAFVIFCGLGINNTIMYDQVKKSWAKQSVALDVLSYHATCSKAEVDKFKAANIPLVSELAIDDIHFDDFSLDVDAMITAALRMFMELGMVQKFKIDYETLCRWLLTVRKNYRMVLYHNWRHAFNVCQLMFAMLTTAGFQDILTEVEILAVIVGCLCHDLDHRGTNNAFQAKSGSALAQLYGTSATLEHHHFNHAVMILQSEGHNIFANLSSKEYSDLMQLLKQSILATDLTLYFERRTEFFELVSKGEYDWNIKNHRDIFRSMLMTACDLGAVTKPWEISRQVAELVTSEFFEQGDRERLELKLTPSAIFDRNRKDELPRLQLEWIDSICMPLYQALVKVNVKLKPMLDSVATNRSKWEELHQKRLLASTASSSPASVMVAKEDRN

PDE7A, sequence (Q13946 whole entry, looked up): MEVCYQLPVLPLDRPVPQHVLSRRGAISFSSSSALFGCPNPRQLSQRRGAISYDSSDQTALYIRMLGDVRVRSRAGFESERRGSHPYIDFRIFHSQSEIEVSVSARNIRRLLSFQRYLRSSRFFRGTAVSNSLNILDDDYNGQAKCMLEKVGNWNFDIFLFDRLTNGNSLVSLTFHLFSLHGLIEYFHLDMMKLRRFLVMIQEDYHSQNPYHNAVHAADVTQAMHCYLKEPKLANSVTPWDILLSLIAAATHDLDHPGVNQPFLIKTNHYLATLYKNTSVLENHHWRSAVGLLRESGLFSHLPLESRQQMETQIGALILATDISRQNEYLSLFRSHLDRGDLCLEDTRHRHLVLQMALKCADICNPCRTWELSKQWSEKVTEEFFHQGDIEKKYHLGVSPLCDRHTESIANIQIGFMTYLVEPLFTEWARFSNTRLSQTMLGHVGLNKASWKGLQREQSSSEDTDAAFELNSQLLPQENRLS
PDE9A, sequence (O76083 whole entry): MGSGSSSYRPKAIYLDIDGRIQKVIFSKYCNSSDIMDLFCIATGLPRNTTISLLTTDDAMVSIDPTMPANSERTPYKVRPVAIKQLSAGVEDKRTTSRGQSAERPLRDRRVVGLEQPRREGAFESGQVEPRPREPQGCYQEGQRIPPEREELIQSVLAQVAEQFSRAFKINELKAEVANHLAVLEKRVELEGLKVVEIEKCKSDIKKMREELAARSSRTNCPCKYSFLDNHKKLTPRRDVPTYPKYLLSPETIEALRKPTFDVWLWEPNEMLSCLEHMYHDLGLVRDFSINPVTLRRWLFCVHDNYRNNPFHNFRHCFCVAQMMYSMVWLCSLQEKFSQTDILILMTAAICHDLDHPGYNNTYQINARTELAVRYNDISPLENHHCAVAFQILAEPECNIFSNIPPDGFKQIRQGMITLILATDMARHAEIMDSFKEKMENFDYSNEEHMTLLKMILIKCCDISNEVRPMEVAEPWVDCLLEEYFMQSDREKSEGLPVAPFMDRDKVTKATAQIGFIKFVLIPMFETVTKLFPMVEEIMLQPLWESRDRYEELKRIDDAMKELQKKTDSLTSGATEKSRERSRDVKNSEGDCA

For `N[C@@H](Cc1ccc(O)c(O)c1)C(=O)O` [L-dopa, levodopa, reference compound], the “Letter Designation (statistical group of stride length)” value (“Letter Designation” for short) (MPTP-treated mice; 1 mg/kg L-DOPA) was “B”, the “Letter Designation” value (MPTP-treated mice; 5 mg/kg L-DOPA) was “A” and the “Stride length (cm) MEAN ± SEM” value (MPTP-treated mice; 1 mg/kg L-DOPA) was 5.78 ± 0.09 cm. For the same compound, the “Stride length (cm) MEAN ± SEM” value (MPTP-treated mice; 5 mg/kg L-DOPA) was 7.29 ± 0.07 cm, the “effect on stride length, in words” value (MPTP-treated mice; MPTP-treated mice, 1 mg/kg L-dopa) was “did not result in a significant increase in stride length” and the “effect on stride length, in words” value (MPTP-treated mice; MPTP-treated mice, 5 mg/kg L-dopa) was “returned stride length to control (unlesioned) values”.

`O=C1Nc2c(Cl)ccc(OCCO)c2C2(CCCCC2)N1` [OM955] was tested, and the IC50 (PDE7A) was 51.8 nM, the “potency of PDE7A inhibition, in words” value (PDE7A) was “moderate potency” and the “selectivity between PDE7A and PDE7B, in words” value (PDE7A) was “little or no selectivity”. The “Fold Selectivity, PDE7A” value (PDE7A) was 1 fold, the “selectivity for inhibition of the PDE7A enzyme as compared to the other PDEs” value (PDE7A) was “greater than 100 fold” and the “Fold Selectivity for PDE7A versus PDE9A” value (PDE9A) was over 192 fold. For the same compound, the “Fold Selectivity for PDE7A versus PDE11A” value (PDE11A) was over 192 fold.

`COc1cc(N)ccc1-c1cc2c(c(=O)[nH]1)C(C1CCCCC1)N=[N+]2C` (centres unmarked) [OM69] was tested, and the “Letter Designation” value (MPTP-treated mice; 0.01 mg/kg OM69) was “B”, the “Letter Designation” value (MPTP-treated mice; 0.03 mg/kg OM69) was “B” and the “Letter Designation” value (MPTP-treated mice; 0.05 mg/kg OM69) was “C”. For the same compound, the “Letter Designation” value (MPTP-treated mice; 0.07 mg/kg OM69) was “C”, the “Letter Designation” value (MPTP-treated mice; 0.1 mg/kg OM69) was “A” and the “Stride length (cm) MEAN ± SEM” value (MPTP-treated mice; 0.01 mg/kg OM69 IP) was 5.77 ± 0.17 cm. For the same compound, the “Stride length (cm) MEAN ± SEM” value (MPTP-treated mice; 0.03 mg/kg OM69 IP) was 5.93 ± 0.14 cm, the “Stride length (cm) MEAN ± SEM” value (MPTP-treated mice; 0.05 mg/kg OM69 IP) was 6.38 ± 0.14 cm and the “Stride length (cm) MEAN ± SEM” value (MPTP-treated mice; 0.07 mg/kg OM69 IP) was 6.65 ± 0.18 cm. The “Stride length (cm) MEAN ± SEM” value (MPTP-treated mice; 0.1 mg/kg OM69 IP) was 7.23 ± 0.07 cm, the “potency relative to L-dopa in restoring stride length” value (MPTP-treated mice; MPTP-treated mice) was “approximately 50 fold” and the “effect on stride length, in words” value (MPTP-treated mice; MPTP-treated mice, 0.1 mg/kg OM69) was “returned stride length to control (unlesioned) values”. The “dose dependence of the effect on stride length, in words” value (MPTP-treated mice; MPTP-treated mice, FIG. 18) was “increases stride length in MPTP-treated mice in a dose-dependent manner”, the “effect on stride length, in words” value (MPTP-treated mice; MPTP-treated mice, intermediate doses of OM69) was “statistically significant (p<0.05) increase in stride length” and the “effect on stride length, in words” value (MPTP-treated mice; MPTP-treated mice, low doses of OM69 (0.01 mg/kg or 0.03 mg/kg)) was “did not increase stride length”. The IC50 (PDE7A) was 1.3 nM, the “potency of PDE7A inhibition, in words” value (PDE7A) was “high potency” and the “selectivity between PDE7A and PDE7B, in words” value (PDE7A) was “little or no selectivity”. The “Fold Selectivity, PDE7A” value (PDE7A) was 1 fold, the “selectivity for inhibition of the PDE7A enzyme as compared to the other PDEs” value (PDE7A) was “greater than 1000 fold” and the “Fold Selectivity for PDE7A versus PDE9A” value (PDE9A) was over 7700 fold. The “Fold Selectivity for PDE7A versus PDE11A” value (PDE11A) was 7070 fold.
